# Test system: Botrytis cinerea
# Test: Comparison trial: control of gray mould (Botrytis cinerea) on fruit slices of green pepper
# Type: in vivo
# Conditions: green pepper fruit slices sprayed with 500 ppm, inoculated after 2 hours, incubated four days at 18-20° C.; untreated infected to 100%
# Text: The active compounds, separately or together, were formulated as a 10% emulsion in a mixture of 70% by weight of cyclohexanone, 20% by weight of Nekanil® LN (Lutensol® AP6, wetting agent having emulsifying and dispersant action based on ethoxylated alkylphenols) and 10% by weight of Wettol® EM (nonionic emulsifier based on ethoxylated castor oil) and diluted with water to the desired concentration. Comparison trial—Control of gray mould (Botrytis cinerea) on fruit slices of green pepper Fruit slices of green pepper were sprayed to run-off with an aqueous suspension, containing the concentration of active ingredient or their mixture mentioned in the table below, prepared from a stock solution containing 10% of the active ingredient; 85% cyclohexanone and 5% emulsifier. After 2 hours the sprayed-on layer had dried, the disks were inoculated with a spore suspension of Botrytis cinerea containing 1,7×10^6 spores per ml in 2 wt. % aqueous biomalt solution. The infected fruit slices were then incubated in chambers with high humidity for four days at 18-20° C. The fruit slice area under fungal attack was then assessed visually in percent.
row,SMILES,infection (fruit slice area under fungal attack in percent) [%]
1,Fc1cccc(F)c1-c1c(Cl)nc2ncnn2c1NCC(F)(F)F [A],100
2,CC(Nc1c(-c2c(F)cccc2F)c(Cl)nc2ncnn12)C(F)(F)F (centres unmarked) [B],20

# From patent US20040162428A1, “6-(2,6-difluorophenyl)-triazolopyrimidines as fungicides” (priority 2001, published 2004)
